# Experimental data published in patent US20260022142A1, “MACROCYCLIC IMMUNOMODULATORS” (Bristol-Myers Squibb Company, priority 2022, published 2026).
# Bridge positions count the residues as written; N and C are the ends. Square brackets hold non-standard residues; d marks the D form. Peptide text beside a SMILES is read from it. * marks the point of attachment. Bip = N[C@@H](Cc1ccc(-c2ccccc2)cc1)C(=O)O; NH(CH2)14COOH = O=C(O)CCCCCCCCCCCCCCN*; Phe(3-Me) = Cc1cccc(C[C@H](N)C(=O)O)c1; NH(CH2)12COOH = O=C(O)CCCCCCCCCCCCN*; Val(3-OH) = CC(C)(O)[C@H](N)C(=O)O; hArg = N=C(N)NCCCC[C@H](N)C(=O)O; hPhe = N[C@@H](CCc1ccccc1)C(=O)O; 4Pal = N[C@@H](Cc1ccncc1)C(=O)O; Cha = N[C@@H](CC1CCCCC1)C(=O)O; Cba = N[C@@H](CC1CCC1)C(=O)O; hSer = N[C@@H](CCO)C(=O)O; Carboxymethyl = O=C(O)C*; Orn = NCCC[C@H](N)C(=O)O; Aun = NCCCCCCCCCCC(=O)O; Dab = NCC[C@H](N)C(=O)O; Nva = CCC[C@H](N)C(=O)O; Dap = NC[C@H](N)C(=O)O
# Target: T1, PD-1/PD-L1 interaction (PE-labeled human PD-L1-Ig binding to Jurkat cell line over-expressing human PD-1) (Homo sapiens, UniProt Q15116)
# T1 construct: expressed in transfected cells; host or cells: Jurkat
# T1 sequence (Q15116 25-288): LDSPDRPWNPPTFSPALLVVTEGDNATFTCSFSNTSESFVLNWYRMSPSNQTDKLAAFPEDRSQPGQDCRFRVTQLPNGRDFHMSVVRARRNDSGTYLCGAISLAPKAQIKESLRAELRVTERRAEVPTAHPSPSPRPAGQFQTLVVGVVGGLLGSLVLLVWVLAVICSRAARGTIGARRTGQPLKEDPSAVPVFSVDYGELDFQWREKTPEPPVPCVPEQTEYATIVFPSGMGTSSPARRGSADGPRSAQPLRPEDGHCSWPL
# Assay: Jurkat-PD-1 Cell Binding High-Content Screening Assay (CBA)
# Type: cell-based
# Conditions: Jurkat cell line over-expressing human PD-1; PE-labeled PD-L1-Ig 20 nM final; read-out: Jurkat hPD1-PDL1 IC50
# Method in brief: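 Human PD-L1-Ig carrying a covalent PE label on its Ig tag serves as the probe, applied at 20 nM final to compound-treated (2 h, 37° C) Jurkat-hPD-1 cells in medium with 10% fetal calf serum. After one hour, fixation and nuclear staining precede high-content image analysis.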
smiles,measurement,value
Cc1cccc(C[C@@H]2NC(=O)[C@H](CC(=O)O)NC(=O)[C@H](Cc3ccc(OCC(=O)O)cc3)NC(=O)[C@H](CN)NC(=O)CSC[C@@H](C(=O)N[C@@H](CCN)C(=O)NCCCCCCCCCCCCC(=O)O)NC(=O)[C@H](CO)NC(=O)[C@H](C(C)(C)O)NC(=O)[C@H](CC3CCCCC3)NC(=O)[C@H](CCN)NC(=O)[C@@H](CC(C)C)NC(=O)[C@H](CCCN)NC(=O)[C@H](Cc3ccc(OCC(=O)O)cc3)NC(=O)[C@H](Cc3ccc(-c4ccccc4)cc3)NC(=O)[C@H](Cc3ccc(OCC(=O)O)cc3)NC2=O)c1 [Compound 2222] ({CH2CO}-[Dap]Y(Carboxymethyl)D[Phe(3-Me)]Y(Carboxymethyl)[Bip]Y(Carboxymethyl)[Orn][dL][Dab][Cha][Val(3-OH)]SC[Dab]-{NH(CH2)12COOH}; thioether N-14),IC50,17.6 nM
Cc1cccc(C[C@@H]2NC(=O)[C@H](CC(=O)O)NC(=O)[C@H](Cc3ccc(OCC(=O)O)cc3)NC(=O)[C@H](CN)NC(=O)CSC[C@@H](C(=O)N[C@@H](CCN)C(=O)NCCCCCCCCCCCCCCC(=O)O)NC(=O)[C@H](CO)NC(=O)[C@H](C(C)(C)O)NC(=O)[C@H](CC3CCCCC3)NC(=O)[C@H](CCN)NC(=O)[C@@H](CC(C)C)NC(=O)[C@H](CCCN)NC(=O)[C@H](Cc3ccc(OCC(=O)O)cc3)NC(=O)[C@H](Cc3ccc(-c4ccccc4)cc3)NC(=O)[C@H](Cc3ccc(OCC(=O)O)cc3)NC2=O)c1 [Compound 2223] ({CH2CO}-[Dap]Y(Carboxymethyl)D[Phe(3-Me)]Y(Carboxymethyl)[Bip]Y(Carboxymethyl)[Orn][dL][Dab][Cha][Val(3-OH)]SC[Dab]-{NH(CH2)14COOH}; thioether N-14),IC50,280 nM
Cc1cccc(C[C@@H]2NC(=O)[C@H](CC(=O)O)NC(=O)[C@H](Cc3ccc(OCC(=O)O)cc3)NC(=O)[C@H](Cc3ccncc3)NC(=O)CSC[C@@H](C(=O)N[C@@H](CCN)C(=O)NCCCCCCCCCCCCC(=O)O)NC(=O)[C@H](CO)NC(=O)[C@H](C(C)(C)O)NC(=O)[C@H](CC3CCCCC3)NC(=O)[C@H](CCN)NC(=O)[C@@H](CC(C)C)NC(=O)[C@H](CCCN)NC(=O)[C@H](Cc3ccc(OCC(=O)O)cc3)NC(=O)[C@H](Cc3ccc(-c4ccccc4)cc3)NC(=O)[C@H](Cc3ccc(OCC(=O)O)cc3)NC2=O)c1 [Compound 2224] ({CH2CO}-[4Pal]Y(Carboxymethyl)D[Phe(3-Me)]Y(Carboxymethyl)[Bip]Y(Carboxymethyl)[Orn][dL][Dab][Cha][Val(3-OH)]SC[Dab]-{NH(CH2)12COOH}; thioether N-14),IC50,26.2 nM
CCC[C@@H]1NC(=O)CSC[C@@H](C(=O)N[C@@H](CCN)C(=O)NCCCCCCCCCCCCC(=O)O)NC(=O)[C@H](CO)NC(=O)[C@H](C(C)(C)O)NC(=O)[C@H](CC2CCCCC2)NC(=O)[C@H](CCN)NC(=O)[C@@H](CC(C)C)NC(=O)[C@H](CCCN)NC(=O)[C@H](Cc2ccc(OCC(=O)O)cc2)NC(=O)[C@H](Cc2ccc(-c3ccccc3)cc2)NC(=O)[C@H](Cc2ccc(OCC(=O)O)cc2)NC(=O)[C@H](Cc2cccc(C)c2)NC(=O)[C@H](CC(=O)O)NC(=O)[C@H](Cc2ccc(OCC(=O)O)cc2)NC1=O [Compound 2226] ({CH2CO}-[Nva]Y(Carboxymethyl)D[Phe(3-Me)]Y(Carboxymethyl)[Bip]Y(Carboxymethyl)[Orn][dL][Dab][Cha][Val(3-OH)]SC[Dab]-{NH(CH2)12COOH}; thioether N-14),IC50,27.8 nM
Cc1cccc(C[C@@H]2NC(=O)[C@H](CC(=O)O)NC(=O)[C@H](Cc3ccc(OCC(=O)O)cc3)NC(=O)[C@H](Cc3ccncc3)NC(=O)CSC[C@@H](C(=O)N[C@@H](CCN)C(=O)NCCCCCCCCCCCCCCC(=O)O)NC(=O)[C@H](CO)NC(=O)[C@H](C(C)(C)O)NC(=O)[C@H](CC3CCCCC3)NC(=O)[C@H](CCN)NC(=O)[C@@H](CC(C)C)NC(=O)[C@H](CCCN)NC(=O)[C@H](Cc3ccc(OCC(=O)O)cc3)NC(=O)[C@H](Cc3ccc(-c4ccccc4)cc3)NC(=O)[C@H](Cc3ccc(OCC(=O)O)cc3)NC2=O)c1 [Compound 2227] ({CH2CO}-[4Pal]Y(Carboxymethyl)D[Phe(3-Me)]Y(Carboxymethyl)[Bip]Y(Carboxymethyl)[Orn][dL][Dab][Cha][Val(3-OH)]SC[Dab]-{NH(CH2)14COOH}; thioether N-14),IC50,204 nM
Cc1cccc(C[C@@H]2NC(=O)[C@H](CC(=O)O)NC(=O)[C@H](Cc3ccc(OCC(=O)O)cc3)NC(=O)[C@H](CCCNC(=N)N)NC(=O)CSC[C@@H](C(=O)N[C@@H](CCN)C(=O)NCCCCCCCCCCCCCCC(=O)O)NC(=O)[C@H](CO)NC(=O)[C@H](C(C)(C)O)NC(=O)[C@H](CC3CCCCC3)NC(=O)[C@H](CCN)NC(=O)[C@@H](CC(C)C)NC(=O)[C@H](CCCN)NC(=O)[C@H](Cc3ccc(OCC(=O)O)cc3)NC(=O)[C@H](Cc3ccc(-c4ccccc4)cc3)NC(=O)[C@H](Cc3ccc(OCC(=O)O)cc3)NC2=O)c1 [Compound 2228] ({CH2CO}-RY(Carboxymethyl)D[Phe(3-Me)]Y(Carboxymethyl)[Bip]Y(Carboxymethyl)[Orn][dL][Dab][Cha][Val(3-OH)]SC[Dab]-{NH(CH2)14COOH}; thioether N-14),IC50,78.1 nM
COc1ccc(C[C@@H]2NC(=O)[C@H](Cc3cccc(C)c3)NC(=O)[C@H](CC(=O)O)NC(=O)[C@H](Cc3ccc(OCC(=O)O)cc3)NC(=O)[C@H](Cc3ccncc3)NC(=O)CSC[C@@H](C(=O)N[C@@H](CCN)C(=O)NCCCCCCCCCCC(=O)O)NC(=O)[C@H](CO)NC(=O)[C@H](C(C)(C)O)NC(=O)[C@H](CC3CCCCC3)NC(=O)[C@H](CCN)NC(=O)[C@@H](CC(C)C)NC(=O)[C@H](CCCN)NC(=O)[C@H](Cc3ccc(OCC(=O)O)cc3)NC(=O)[C@H](Cc3ccc(-c4ccccc4)cc3)NC2=O)cc1 [Compound 2229] ({CH2CO}-[4Pal]Y(Carboxymethyl)D[Phe(3-Me)]Y(Me)[Bip]Y(Carboxymethyl)[Orn][dL][Dab][Cha][Val(3-OH)]SC[Dab][Aun]-OH; thioether N-14),IC50,0.6 nM
Cc1cccc(C[C@@H]2NC(=O)[C@H](CC(=O)O)NC(=O)[C@H](Cc3ccc(OCC(=O)O)cc3)NC(=O)[C@H](CCO)NC(=O)CSC[C@@H](C(=O)N[C@@H](CCN)C(=O)NCCCCCCCCCCC(=O)O)NC(=O)[C@H](CO)NC(=O)[C@H](C(C)(C)O)NC(=O)[C@H](CC3CCCCC3)NC(=O)[C@H](CCN)NC(=O)[C@@H](CC(C)C)NC(=O)[C@H](CCCN)NC(=O)[C@H](Cc3ccc(OCC(=O)O)cc3)NC(=O)[C@H](Cc3ccc(-c4ccccc4)cc3)NC(=O)[C@H](Cc3ccc(OCC(=O)O)cc3)NC2=O)c1 [Compound 2230] ({CH2CO}-[hSer]Y(Carboxymethyl)D[Phe(3-Me)]Y(Carboxymethyl)[Bip]Y(Carboxymethyl)[Orn][dL][Dab][Cha][Val(3-OH)]SC[Dab][Aun]-OH; thioether N-14),IC50,2.2 nM
Cc1cccc(C[C@@H]2NC(=O)[C@H](CC(=O)O)NC(=O)[C@H](Cc3ccc(OCC(=O)O)cc3)NC(=O)[C@H](CCc3ccccc3)NC(=O)CSC[C@@H](C(=O)N[C@@H](CCN)C(=O)NCCCCCCCCCCC(=O)O)NC(=O)[C@H](CO)NC(=O)[C@H](C(C)(C)O)NC(=O)[C@H](CC3CCCCC3)NC(=O)[C@H](CCN)NC(=O)[C@@H](CC(C)C)NC(=O)[C@H](CCCN)NC(=O)[C@H](Cc3ccc(OCC(=O)O)cc3)NC(=O)[C@H](Cc3ccc(-c4ccccc4)cc3)NC(=O)[C@H](Cc3ccc(OCC(=O)O)cc3)NC2=O)c1 [Compound 2231] ({CH2CO}-[hPhe]Y(Carboxymethyl)D[Phe(3-Me)]Y(Carboxymethyl)[Bip]Y(Carboxymethyl)[Orn][dL][Dab][Cha][Val(3-OH)]SC[Dab][Aun]-OH; thioether N-14),IC50,15.2 nM
Cc1cccc(C[C@@H]2NC(=O)[C@H](CC(=O)O)NC(=O)[C@H](Cc3ccc(OCC(=O)O)cc3)NC(=O)[C@@H](CCCNC(=N)N)NC(=O)CSC[C@@H](C(=O)N[C@@H](CCN)C(=O)NCCCCCCCCCCC(=O)O)NC(=O)[C@H](CO)NC(=O)[C@H](C(C)(C)O)NC(=O)[C@H](CC3CCCCC3)NC(=O)[C@H](CCN)NC(=O)[C@@H](CC(C)C)NC(=O)[C@H](CCCN)NC(=O)[C@H](Cc3ccc(OCC(=O)O)cc3)NC(=O)[C@H](Cc3ccc(-c4ccccc4)cc3)NC(=O)[C@H](Cc3ccc(OCC(=O)O)cc3)NC2=O)c1 [Compound 2232] ({CH2CO}-[dR]Y(Carboxymethyl)D[Phe(3-Me)]Y(Carboxymethyl)[Bip]Y(Carboxymethyl)[Orn][dL][Dab][Cha][Val(3-OH)]SC[Dab][Aun]-OH; thioether N-14),IC50,238 nM
Cc1cccc(C[C@@H]2NC(=O)[C@H](CC(=O)O)NC(=O)[C@H](Cc3ccc(OCC(=O)O)cc3)NC(=O)[C@H](CC3CCC3)NC(=O)CSC[C@@H](C(=O)N[C@@H](CCN)C(=O)NCCCCCCCCCCC(=O)O)NC(=O)[C@H](CO)NC(=O)[C@H](C(C)(C)O)NC(=O)[C@H](CC3CCCCC3)NC(=O)[C@H](CCN)NC(=O)[C@@H](CC(C)C)NC(=O)[C@H](CCCN)NC(=O)[C@H](Cc3ccc(OCC(=O)O)cc3)NC(=O)[C@H](Cc3ccc(-c4ccccc4)cc3)NC(=O)[C@H](Cc3ccc(OCC(=O)O)cc3)NC2=O)c1 [Compound 2233] ({CH2CO}-[Cba]Y(Carboxymethyl)D[Phe(3-Me)]Y(Carboxymethyl)[Bip]Y(Carboxymethyl)[Orn][dL][Dab][Cha][Val(3-OH)]SC[Dab][Aun]-OH; thioether N-14),IC50,5 nM
Cc1cccc(C[C@@H]2NC(=O)[C@H](CC(=O)O)NC(=O)[C@H](Cc3ccc(OCC(=O)O)cc3)NC(=O)[C@H](CCCCNC(=N)N)NC(=O)CSC[C@@H](C(=O)N[C@@H](CCN)C(=O)NCCCCCCCCCCC(=O)O)NC(=O)[C@H](CO)NC(=O)[C@H](C(C)(C)O)NC(=O)[C@H](CC3CCCCC3)NC(=O)[C@H](CCN)NC(=O)[C@@H](CC(C)C)NC(=O)[C@H](CCCN)NC(=O)[C@H](Cc3ccc(OCC(=O)O)cc3)NC(=O)[C@H](Cc3ccc(-c4ccccc4)cc3)NC(=O)[C@H](Cc3ccc(OCC(=O)O)cc3)NC2=O)c1 [Compound 2234] ({CH2CO}-[hArg]Y(Carboxymethyl)D[Phe(3-Me)]Y(Carboxymethyl)[Bip]Y(Carboxymethyl)[Orn][dL][Dab][Cha][Val(3-OH)]SC[Dab][Aun]-OH; thioether N-14),IC50,2.6 nM
